In patent US20120115869A1, “TETRAZOLE DERIVATIVES” (MERCK SERONO S.A., priority 2009, published 2012):

biological target: T1, CRTH2 (DP2) (Homo sapiens, UniProt Q9Y5Y4); assay: Radioligand binding Scintillation Proximity Assay ([3H]PGD2, hCRTH2-CHO cell membranes); details: 1.5 nM [3H]PGD2, hCRTH2-CHO cell membranes, SPA
T1 construct: host or cells: CHO cells
T1 sequence (Q9Y5Y4 1-395): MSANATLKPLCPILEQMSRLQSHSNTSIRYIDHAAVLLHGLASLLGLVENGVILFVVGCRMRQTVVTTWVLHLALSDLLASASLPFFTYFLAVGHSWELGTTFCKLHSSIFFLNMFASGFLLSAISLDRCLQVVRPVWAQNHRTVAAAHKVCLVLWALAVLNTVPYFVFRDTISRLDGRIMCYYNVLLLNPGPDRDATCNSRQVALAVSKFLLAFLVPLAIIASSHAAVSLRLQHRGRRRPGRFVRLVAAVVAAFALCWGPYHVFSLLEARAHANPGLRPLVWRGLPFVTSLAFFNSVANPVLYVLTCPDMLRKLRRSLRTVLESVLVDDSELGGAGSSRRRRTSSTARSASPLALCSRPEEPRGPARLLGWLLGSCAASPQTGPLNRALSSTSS
Experimental: Adherent CHO cells expressing hCRTH2 (Euroscreen, Belgium) were cultured in 225 cm^2 cell culture flasks (Corning, USA) in 30 ml of medium. After two rinses of phosphate buffered saline (PBS), cells were harvested in 10 ml of PBS containing 1 mM EDTA, centrifuged at 500×g for 5 min at 4° C. and frozen at −80° C. The pellet was re-suspended in 50 mM Tris-HCl, pH 7.4, 2 mM EDTA, 250 mM Sucrose, containing protease inhibitor cocktail tablets, (Complete EDTA-free, Roche, Germany) and incubated 30 min at 4° C. Cells were disrupted by nitrogen cavitation (Parr Instruments, USA) at 4° C. (800 p.s.i. for 30 min), and centrifuged at 500×g for 10 min at 4° C. Pellet containing nuclei and cellular debris was discarded and supernatant was centrifuged 60 min at 4° C. at 45000×g. Membrane pellet was re-suspended in storage buffer (10 mM HEPES/KOH pH 7.4, 1 mM EDTA, 250 mM sucrose, protease inhibitor cocktail tablets) using Dounce homogenization and frozen in liquid nitrogen, and stored at 80° C.
Non-specific binding was determined in the presence of 10 μM PGD2 (Cayman, USA). Competing Compounds of Formula (I) were diluted in dimethylsulphoxide so that the total volume of dimethylsulfoxide was kept constant at 1% dimethylsulphoxide (Me2SO). Serial dilutions of […] were prepared and 10 μl each of the compounds of Formula (I) stock solutions were added to the binding assay reagents and incubated for 90 min with agitation at room temperature.

Compound	IC50 [nM]
C#Cc1cccc(CN(C(C)=O)c2cc(-c3nnn[nH]3)ccc2F)c1 [Example 2, N-(3-ethynylbenzyl)-N-[2-fluoro-5-(1H-tetrazol-5-yl)phenyl]acetamide]	175
CCCCC(=O)N(Cc1ccc2ccccc2c1)c1cccc(-c2nnn[nH]2)c1 [Example 3, N-(2-naphthylmethyl)-N-[3-(1H-tetrazol-5-yl)phenyl]pentanamide]	49
CCCCC(=O)N(Cc1ccc2ccccc2c1)c1cc(-c2nnn[nH]2)ccc1F [Example 6, N-[2-fluoro-5-(1H-tetrazol-5-yl)phenyl]-N-(2-naphthylmethyl)pentanamide]	23
CC(C)CC(=O)N(Cc1ccc2c(c1)OCCO2)c1cc(-c2nnn[nH]2)ccc1F [Example 7, N-(2,3-dihydro-1,4-benzodioxin-6-ylmethyl)-N-[2-fluoro-5-(1H-tetrazol-5-yl)phenyl]-3-methylbutanamide]	7.1
CCCC(=O)N(Cc1ccc2c(c1)OCCO2)c1cc(-c2nnn[nH]2)ccc1F [Example 8, N-(2,3-dihydro-1,4-benzodioxin-6-ylmethyl)-N-[2-fluoro-5-(1H-tetrazol-5-yl)phenyl]butanamide]	6.3
CCCCC(=O)N(Cc1ccc2c(c1)OCCO2)c1cc(-c2nnn[nH]2)c(F)cc1F [Example 10, N-[2,4-difluoro-5-(1H-tetrazol-5-yl)phenyl]-N-(2,3-dihydro-1,4-benzodioxin-6-ylmethyl)pentanamide]	54
CCCCC(=O)N(Cc1cc2ccccc2o1)c1cc(-c2nnn[nH]2)ccc1F [Example 12, N-(1-benzofuran-2-ylmethyl)-N-[2-fluoro-5-(1H-tetrazol-5-yl)phenyl]pentanamide]	8.6
CCCCC(=O)N(Cc1ccc(OC)cc1)c1cccc(-c2nnn[nH]2)c1 [Example 14, N-(4-methoxybenzyl)-N-[3-(1H-tetrazol-5-yl)phenyl]pentanamide]	61
CCCCC(=O)N(Cc1ccc2c(c1)OCCO2)c1cc(-c2nnn[nH]2)ccc1F [Example 15, N-(2,3-dihydro-1,4-benzodioxin-6-ylmethyl)-N-[2-fluoro-5-(1H-tetrazol-5-yl)phenyl]pentanamide]	4.2
CCCCC(=O)N(Cc1cccs1)c1cccc(-c2nnn[nH]2)c1 [Example 16, N-[3-(1H-tetrazol-5-yl)phenyl]-N-(2-thienylmethyl)pentanamide]	588
CCC(=O)N(Cc1cccs1)c1cccc(-c2nnn[nH]2)c1 [Example 17, N-[3-(1H-tetrazol-5-yl)phenyl]-N-(2-thienylmethyl)propanamide]	1590
CCC(=O)N(Cc1ccsc1)c1cccc(-c2nnn[nH]2)c1 [Example 18, N-[3-(1H-tetrazol-5-yl)phenyl]-N-(3-thienylmethyl)propanamide]	2100
CCCC(=O)N(Cc1ccc2c(c1)OCCO2)c1cccc(-c2nnn[nH]2)c1 [Example 19, N-(2,3-dihydro-1,4-benzodioxin-6-ylmethyl)-N-[3-(1H-tetrazol-5-yl)phenyl]butanamide]	15
CCC(=O)N(Cc1ccc2c(c1)OCCO2)c1cccc(-c2nnn[nH]2)c1 [Example 20, N-(2,3-dihydro-1,4-benzodioxin-6-ylmethyl)-N-[3-(1H-tetrazol-5-yl)phenyl]propanamide]	51
CCCCC(=O)N(Cc1ccsc1)c1cccc(-c2nnn[nH]2)c1 [Example 21, N-[3-(1H-tetrazol-5-yl)phenyl]-N-(3-thienylmethyl)pentanamide]	759
CCC(=O)N(Cc1ccc(OC(F)(F)F)cc1)c1cccc(-c2nnn[nH]2)c1 [Example 22, N-[3-(1H-tetrazol-5-yl)phenyl]-N-[4-(trifluoromethoxy)benzyl]propanamide]	132
CCC(=O)N(Cc1c(-c2ccccc2)noc1C)c1cccc(-c2nnn[nH]2)c1 [Example 23, N-[(5-methyl-3-phenylisoxazol-4-yl)methyl]-N-[3-(1H-tetrazol-5-yl)phenyl]propanamide]	2960

Continued, values first:

IC50 [nM]	Compound
2180	CCC(=O)N(Cc1c(C)noc1-c1ccccc1)c1cccc(-c2nnn[nH]2)c1 [Example 24, N-[(3-methyl-5-phenylisoxazol-4-yl)methyl]-N-[3-(1H-tetrazol-5-yl)phenyl]propanamide]
444	CCC(=O)N(Cc1cccc(OC)c1)c1cccc(-c2nnn[nH]2)c1 [Example 25, N-(3-methoxybenzyl)-N-[3-(1H-tetrazol-5-yl)phenyl]propanamide]
268	CCC(=O)N(Cc1ccc(OC)cc1)c1cccc(-c2nnn[nH]2)c1 [Example 26, N-(4-methoxybenzyl)-N-[3-(1H-tetrazol-5-yl)phenyl]propanamide]
129	CCC(=O)N(Cc1ccc(C(F)(F)F)cc1)c1cccc(-c2nnn[nH]2)c1 [Example 27, N-[3-(1H-tetrazol-5-yl)phenyl]-N-[4-(trifluoromethyl)benzyl]propanamide]
268	CCC(=O)N(Cc1cccc(C(F)(F)F)c1)c1cccc(-c2nnn[nH]2)c1 [Example 28, N-[3-(1H-tetrazol-5-yl)phenyl]-N-[3-(trifluoromethyl)benzyl]propanamide]
5.2	CCCCC(=O)N(Cc1cccc(OC(F)(F)F)c1)c1cc(F)cc(-c2nnn[nH]2)c1 [Example 29, N-[3-fluoro-5-(1H-tetrazol-5-yl)phenyl]-N-[3-(trifluoromethoxy)benzyl]pentanamide]
2250	CCC(=O)N(Cc1ccccc1)c1cccc(-c2nnn[nH]2)c1 [Example 30, N-benzyl-N-[3-(1H-tetrazol-5-yl)phenyl]propanamide]
1540	CCC(=O)N(Cc1ccc(F)cc1)c1cccc(-c2nnn[nH]2)c1 [Example 31, N-(4-fluorobenzyl)-N-[3-(1H-tetrazol-5-yl)phenyl]propanamide]
1690	CCC(=O)N(Cc1cccc(F)c1)c1cccc(-c2nnn[nH]2)c1 [Example 32, N-(3-fluorobenzyl)-N-[3-(1H-tetrazol-5-yl)phenyl]propanamide]
1160	CCC(=O)N(Cc1ccccc1F)c1cccc(-c2nnn[nH]2)c1 [Example 33, N-(2-fluorobenzyl)-N-[3-(1H-tetrazol-5-yl)phenyl]propanamide]
147	CCC(=O)N(Cc1ccc2c(c1)OCO2)c1cccc(-c2nnn[nH]2)c1 [Example 34, N-(1,3-benzodioxol-5-ylmethyl)-N-[3-(1H-tetrazol-5-yl)phenyl]propanamide]
8.9	CCCCC(=O)N(Cc1ccc(OC(F)(F)F)cc1)c1cc(F)cc(-c2nnn[nH]2)c1 [Example 35, N-[3-fluoro-5-(1H-tetrazol-5-yl)phenyl]-N-[4-(trifluoromethoxy)benzyl]pentanamide]
9.3	CCC(=O)N(Cc1ccc(OC(F)(F)F)cc1)c1cc(F)cc(-c2nnn[nH]2)c1 [Example 36, N-[3-fluoro-5-(1H-tetrazol-5-yl)phenyl]-N-[4-(trifluoromethoxy)benzyl]propanamide]
245	CCC(=O)N(Cc1cccc(OC(F)(F)F)c1)c1cccc(-c2nnn[nH]2)c1 [Example 42, N-[3-(1H-tetrazol-5-yl)phenyl]-N-[3-(trifluoromethoxy)benzyl]propanamide]
663	CCC(=O)N(Cc1nc2ccccc2s1)c1cccc(-c2nnn[nH]2)c1 [Example 43, N-(1,3-benzothiazol-2-ylmethyl)-N-[3-(1H-tetrazol-5-yl)phenyl]propanamide]
2100	CCC(=O)N(Cc1nonc1C)c1cccc(-c2nnn[nH]2)c1 [Example 44, N-[(4-methyl-1,2,5-oxadiazol-3-yl)methyl]-N-[3-(1H-tetrazol-5-yl)phenyl]propanamide]
83	CCC(=O)N(Cc1ccc(OC(F)(F)F)c(Cl)c1)c1cccc(-c2nnn[nH]2)c1 [Example 45, N-[3-chloro-4-(trifluoromethoxy)benzyl]-N-[3-(1H-tetrazol-5-yl)phenyl]propanamide]
1140	CCC(=O)N(Cc1cccc(C#CCOC)c1)c1cccc(-c2nnn[nH]2)c1 [Example 47, N-[3-(3-methoxyprop-1-yn-1-yl)benzyl]-N-[3-(1H-tetrazol-5-yl)phenyl]propanamide]
1270	CCC(=O)N(Cc1cccc(C#CCO)c1)c1cccc(-c2nnn[nH]2)c1 [Example 48, N-[3-(3-hydroxyprop-1-yn-1-yl)benzyl]-N-[3-(1H-tetrazol-5-yl)phenyl]propanamide]
618	CCCC#Cc1cccc(CN(C(=O)CC)c2cccc(-c3nnn[nH]3)c2)c1 [Example 49, N-(3-pent-1-yn-1-ylbenzyl)-N-[3-(1H-tetrazol-5-yl)phenyl]propanamide]
